This note sets out measurements from US20230022157A1 (Achillion Pharmaceuticals, Inc., priority 2018, published 2023).

The experiment concerns the target T1, Human Factor D (Homo sapiens, UniProt P00746).
T1 construct: purified from human serum; purchased Complement Technology, Inc; host or cells: human serum (natural protein, not recombinant)
As to the kind of experiment: Human Factor D Assay. It is filed as biochemical. The settings on record: Human Factor D 80 nM, substrate Z-L-Lys-SBzl, read-out: IC50 (Stars). The protocol:
Human Factor D (purified from human serum, Complement Technology, Inc.) at 80 nM final concentration is incubated with test compound at various concentrations for 5 min at room temperature in 50 mM Tris, 1M NaCl, pH 7.5. A synthetic substrate Z-L-Lys-SBzl and DTNB (Ellman's reagent) are added to final concentrations of 100 μM each. […] IC50 values are calculated by nonlinear regression of complement Factor D reaction rates as a function of test compound concentration.

Where two headings read alike, the source gives them in different places.

T1 sequence (P00746 26-253): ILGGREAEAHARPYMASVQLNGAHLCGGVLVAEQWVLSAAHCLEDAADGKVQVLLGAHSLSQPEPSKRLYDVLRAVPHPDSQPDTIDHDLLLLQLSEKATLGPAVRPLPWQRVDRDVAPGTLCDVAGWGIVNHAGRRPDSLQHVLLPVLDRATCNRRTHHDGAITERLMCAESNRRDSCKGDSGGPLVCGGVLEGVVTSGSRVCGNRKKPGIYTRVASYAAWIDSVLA

One may read the IC50 as the concentration that gives 50% inhibition. On to `CC(=O)c1nn(CC(=O)N2[C@H](C(=O)Nc3cncc(Br)n3)C[C@@]3(C)C[C@@H]23)c2c(C)cc(-c3cnc(C(=O)O)nc3)cc12` [Compound 43, 5-(3-acetyl-1-(2-((1R,3S,5R)-3-((6-bromopyrazin-2-yl)carbamoyl)-5-methyl-2-azabicyclo[3.1.0]hexan-2-yl)-2-oxoethyl)-7-methyl-1H-indazol-5-yl)pyrimidine-2-carboxylic acid], for which the 50% inhibitory concentration (IC50) (Table 2) was below 1000 nM.
Take `CC(=O)c1nn(CC(=O)N2[C@H](C(=O)NCCc3cc(Cl)ccc3Cl)C[C@@]3(C)C[C@@H]23)c2c(C)cc(-c3cnc(C)nc3)cc12` [Compound 4, (1R,3S,5R)-2-(2-(3-Acetyl-7-methyl-5-(2-methylpyrimidin-5-yl)-1H-indazol-1-yl)acetyl)-N-(2,5-dichlorophenethyl)-5-methyl-2-azabicyclo[3.1.0]hexane-3-carboxamide]: the concentration for half-maximal inhibition (IC50) (assay of Example 3) was below 1000 nM.
Consider `CC(=O)c1nn(CC(=O)N2C[C@H](F)C[C@H]2C(=O)Oc2cccc(Br)n2)c2ccc(-c3cnc(C)nc3)cc12` [Compound 37, (2S,4R)-6-Bromopyridin-2-yl 1-(2-(3-acetyl-5-(2-methylpyrimidin-5-yl)-1H-indazol-1-yl)acetyl)-4-fluoropyrrolidine-2-carboxylate], for which the IC50 (assay of Example 3) was 1000 to 10000 nM.
On to `CC(=O)c1nn(CC(=O)N2[C@H](C(=O)N[C@H]3CCCCC34OCCO4)C[C@@]3(C)C[C@@H]23)c2c(C)cc(-c3cnc(C)nc3)cc12` (single isomer, unassigned) [Compound 135], for which the IC50 (Table 2) fell in the range of 1000 to 10000 nM.
Still for that read-out and setting: in the case of `CC(=O)c1nn(CC(=S)N2C[C@H](F)C[C@H]2C(=O)Nc2cccc(Br)n2)c2ccc(-c3cnc(C)nc3)cc12` [Compound 110, 1-{2-[3-Acetyl-5-(2-methyl-pyrimidin-5-yl)-indazol-1-yl]-thioacetyl}-4-fluoro-pyrrolidine-2-carboxylic acid (6-bromo-pyridin-2-yl)-amide] it was 1000 to 10000 nM.
Turning to `CC(=O)c1nn(CC(=O)N2[C@H](C(=O)Nc3nc(C(F)(F)F)ccc3C)C[C@@]3(C)C[C@@H]23)c2ccc(-c3cncc(S(N)(=O)=O)c3)cc12` [Compound 22, (1R,3S,5R)-2-(2-(3-Acetyl-5-(5-sulfamoylpyridin-3-yl)-1H-indazol-1-yl)acetyl)-5-methyl-N-(3-methyl-6-(trifluoromethyl)pyridin-2-yl)-2-azabicyclo[3.1.0]hexane-3-carboxamide], where the note is “assay of Example 3”, the half-inhibitory concentration (IC50) is below 1000 nM.
On to `CC(=O)c1nn(CC(=O)N2C[C@H]3C[C@H]3[C@H]2C(=O)Nc2nc(Br)c(F)cc2C)c2c(C)cc(-c3cnc(C(C)O)nc3)cc12` (stereo partly drawn) [Compound 165, (1R,2S,5S)-3-(2-(3-acetyl-5-(2-(1-hydroxyethyl)pyrimidin-5-yl)-7-methyl-1H-indazol-1-yl)acetyl)-N-(6-bromo-5-fluoro-3-methylpyridin-2-yl)-3-azabicyclo[3.1.0]hexane-2-carboxamide], for which, for the setting “Table 2”, the half-inhibitory concentration (IC50) was below 1000 nM.
As for `Cc1ncc(-c2cc3c(C(N)=O)nn(CC(=O)N4C(C(=O)Nc5nc(Br)ccc5Cl)CC5(C)CC45)c3c(C)n2)cn1` (stereo not shown) [Compound 91, 1-{2-[3-(6-Bromo-3-chloro-pyridin-2-ylcarbamoyl)-5-methyl-2-aza-bicyclo[3.1.0]hex-2-yl]-2-oxo-ethyl}-7-methyl-5-(2-methyl-pyrimidin-5-yl)-1H-pyrazolo[3,4-c]pyridine-3-carboxylic acid amide], for the setting “Table 2”, the concentration for half-maximal inhibition (IC50) is below 1000 nM.
Still for that read-out and setting: in the case of `C=CCC(Cc1ccccc1)NC(=O)[C@@H]1C[C@@]2(C)C[C@H]2N1C(=O)Cn1nc(C(C)=O)c2cc(-c3cnc(C)nc3)cc(C)c21` (stereo partly drawn) [Compound 174, (1R,3S,5R)-2-{2-[3-acetyl-7-methyl-5-(2-methylpyrimidin-5-yl)indazol-1-yl]acetyl}-5-methyl-N-(1-phenylpent-4-en-2-yl)-2-azabicyclo[3.1.0]hexane-3-carboxamide] it was below 1000 nM.
Turning to `CC(=O)c1nn(CC(=O)N2[C@H](C(=O)Nc3cncc(Br)n3)C[C@@]3(C)C[C@@H]23)c2c(C)cc(-c3ccc(CO)nc3)cc12` [Compound 119, (1R,3S,5R)-2-(2-(3-acetyl-5-(6-(hydroxymethyl)pyridin-3-yl)-7-methyl-1H-indazol-1-yl)acetyl)-N-(6-bromopyrazin-2-yl)-5-methyl-2-azabicyclo[3.1.0]hexane-3-carboxamide], the half-maximal inhibitory concentration (IC50) (Table 2) is below 1000 nM.
On the same count and under the same terms, as for `CC(=O)c1nn(CC(=O)N2[C@H](C(=O)Nc3nc(Br)ccc3C)C[C@@]3(C)C[C@@H]23)c2ccc(-c3cncc(S(C)(=O)=O)c3)cc12` [Compound 121, (1R,3S,5R)-2-(2-(3-Acetyl-5-(5-(methylsulfonyl)pyridin-3-yl)-1H-indazol-1-yl)acetyl)-N-(6-bromo-3-methylpyridin-2-yl)-5-methyl-2-azabicyclo[3.1.0]hexane-3-carboxamide], the figure is below 1000 nM.
Regarding `CC(=O)c1nn(CC(=O)N2[C@H](C(=O)Nc3cccc(C(F)(F)F)c3F)C[C@@]3(C)C[C@@H]23)c2ccc(-c3cnc4cc(C)nn4c3)cc12` [Compound 25, (1R,3S,5R)-2-(2-(3-Acetyl-5-(2-methylpyrazolol[1,5-A]pyrimidin-6-yl)-1H-indazol-1-yl)acetyl)-N-(2-fluoro-3-(trifluoromethyl)phenyl)-5-methyl-2-azabicyclo[3.1.0]hexane-3-carboxamide], for the setting “assay of Example 3”, the IC50 was below 1000 nM.
In the case of `CC(=O)c1nn(CC(=O)N2[C@H](C(=O)N[C@H](C)C3CCCCC3)C[C@@]3(C)C[C@@H]23)c2c(C)cc(-c3cnc(C)nc3)cc12` [Compound 70, (1R,3S,5R)-2-(2-(3-acetyl-7-methyl-5-(2-methylpyrimidin-5-yl)-1H-indazol-1-yl)acetyl)-N—((R)-1-cyclohexylethyl)-5-methyl-2-azabicyclo[3.1.0]hexane-3-carboxamide], the IC50 (Table 2) is below 1000 nM.
On the same count and under the same terms, as for `CC(=O)c1cn(CC(=O)N2[C@H](C(=O)Nc3nc(C(F)(F)F)ccc3C)C[C@@]3(C)C[C@@H]23)c2c(C)cc(-c3cnc4c(O)c(C)nn4c3)cc12` [Compound 231, (1R,3S,5R)-2-(2-(3-acetyl-5-(3-hydroxy-2-methylpyrazolo[1,5-a]pyrimidin-6-yl)-7-methyl-1H-indol-1-yl)acetyl)-5-methyl-N-(3-methyl-6-(trifluoromethyl)pyridin-2-yl)-2-azabicyclo[3.1.0]hexane-3-carboxamide], the figure is below 1000 nM.
Same read-out and setting: as for `CC(=O)c1nn(CC(=O)N2[C@H](C(=O)Nc3cncc(Br)n3)C[C@@]3(C)C[C@@H]23)c2c(C)cc(-c3cnc(C(C)O)nc3)cc12` (stereo partly drawn) [Compound 109, (1R,3S,5R)-2-(2-(3-acetyl-5-(2-(1-hydroxyethyl)pyrimidin-5-yl)-7-methyl-11H-indazol-1-yl)acetyl)-N-(6-bromopyrazin-2-yl)-5-methyl-2-azabicyclo[3.1.0]hexane-3-carboxamide], the figure is below 1000 nM.
The same measure, in the same setting: as for `COCc1ccc(Br)nc1NC(=O)[C@@H]1C[C@@]2(C)C[C@H]2N1C(=O)Cn1cc(C(C)=O)c2cc(-c3cnc(C)nc3)cc(C)c21` [Compound 214, (1R,3S,5R)-2-(2-(3-acetyl-7-methyl-5-(2-methyl-pyrimidin-5-yl)-1H-indol-1-yl)acetyl)-N-(6-bromo-3-(methoxymethyl)pyridin-2-yl)-5-methyl-2-azabicyclo[3.1.0]hexane-3-carboxamide], the figure is below 1000 nM; as for `CC(=O)c1nn(CC(=O)N2[C@H](C(=O)NC(C)c3cccnn3)C[C@@]3(C)C[C@@H]23)c2c(C)cc(-c3cnc(C)nc3)cc12` (stereo partly drawn) [Compound 189, (1R,3S,5R)-2-{2-[3-acetyl-7-methyl-5-(2-methylpyrimidin-5-yl)indazol-1-yl]acetyl}-5-methyl-N-[1-(pyridazin-3-yl)ethyl]-2-azabicyclo[3.1.0]hexane-3-carboxamide], below 1000 nM; as for `CC(=O)c1cn(CC(=O)N2[C@H](C(=O)Nc3cncc(Br)n3)C[C@@]3(C)C[C@@H]23)c2c(C)cc(-c3cnc4cc(C)nn4c3)cc12` [Compound 210, (1R,3S,5R)-2-(2-(3-acetyl-7-methyl-5-(2-methylpyrazolo[1,5-a]pyrimidin-6-yl)-1H-indol-1-yl)acetyl)-N-(6-bromopyrazin-2-yl)-5-methyl-2-azabicyclo[3.1.0]hexane-3-carboxamide], below 1000 nM.
As to `CC(=O)c1nn(CC(=O)N2[C@H](C(=O)N[C@H](C)CC(C)C)C[C@@]3(C)C[C@@H]23)c2ccc(-c3cnc(C)nc3)cc12` [Compound 18, (1R,3S,5R)-2-(2-(3-Acetyl-5-(2-methylpyrimidin-5-yl)-1H-indazol-1-yl)acetyl)-5-methyl-N—((R)-4-methylpentan-2-yl)-2-azabicyclo[3.1.0]hexane-3-carboxamide], the IC50 (assay of Example 3) is below 1000 nM.
As for `CC(=O)c1nn(CC(=O)N2[C@H](C(=O)Nc3nc(Br)ccc3C)C[C@@]3(C)C[C@@H]23)c2c(C)cc(-c3cnc(C4(O)CC4)nc3)cc12` [Compound 169], the IC50 (Table 2) is below 1000 nM.
For `CC(=O)c1nn(CC(=O)N2[C@H](C(=O)Nc3nc(C(F)(F)F)ccc3C)C[C@@]3(C)C[C@@H]23)c2c(C)cc(-c3cnc4cc(C)nn4c3)cc12` [Compound 224, (1R,3S,5R)-2-(2-(3-acetyl-7-methyl-5-(2-methylpyrazolo[1,5-a]pyrimidin-6-yl)-1H-indazol-1-yl)acetyl)-5-methyl-N-(3-methyl-6-(trifluoromethyl)pyridin-2-yl)-2-azabicyclo[3.1.0]hexane-3-carboxamide], for the setting “Table 2”, the IC50 was below 1000 nM.
Same read-out and setting: as for `COCC(Cc1ccccc1)NC(=O)[C@@H]1C[C@@]2(C)C[C@H]2N1C(=O)Cn1nc(C(C)=O)c2cc(-c3cnc(C)nc3)cc(C)c21` (stereo partly drawn) [Compound 172, (1R,3S,5R)-2-{2-[3-acetyl-7-methyl-5-(2-methylpyrimidin-5-yl)indazol-1-yl]acetyl}-N-(1-methoxy-3-phenylpropan-2-yl)-5-methyl-2-azabicyclo[3.1.0]hexane-3-carboxamide], the figure is below 1000 nM.
